Measurements: patent publication US6583274B1, “Crystalline forms of macrolide antibiotic” (Pfizer Inc., priority 1999, dated 2003)
One block for each compound: values may come before it.

Assays:
[1] = water loss under routine handling conditions; type: physicochemical; conditions: routine handling conditions (e.g., 25° C. and 70% relative humidity)
[2] = hygroscopicity measurement (weight vs relative humidity on storage); type: physicochemical; conditions: for hygroscopicity: about 87% relative humidity, ambient temperature
Procedure: FIG. 3: Weight (Pct) - Relative humidity (Pct).
As used herein, the term “non-hygroscopic” when used to describe a composition of matter means that the composition of matter absorbs moisture at a rate of less than about 0.4% over 24 hours at 90% relative humidity.
A particular advantage conferred by this form is its lack of hygroscopicity.
(§1) From this and other data, it has been determined that crystalline anhydrous CP-472,295 is non-hygroscopic at about 87% relative humidity for about 72 hours at ambient temperature. This unexpected property allows the low-cost, efficient handling and storage of the drug, and the facile incorporation of accurate amounts of the drug into a variety of dosage forms.
as §1, with “Crystalline CP-472,295 monohydrate, like the crystalline anhydrous form described above, is advantageously non-hygroscopic. […] From” for “From”, “crystalline” for “crystalline anhydrous”, “CP-472,295 monohydrate” for “CP-472,295”, “7 days” for “72 hours”
By contrast, the pseudomorph formed when the monohydrate loses water is hygroscopic, and reabsorbs the water of hydration within about 4 hours when stored at about 87% relative humidity at ambient temperature.

- loss of water (stability of hydrate) [1]: readily loses water
SMILES: CCCNC[C@]1(O)[C@H](C)O[C@@H](O[C@H]2[C@H](C)[C@@H](O[C@@H]3O[C@H](C)C[C@H](N(C)C)[C@H]3O)[C@@](C)(O)C[C@@H](C)CN[C@H](C)[C@@H](O)[C@](C)(O)[C@@H](CC)OC(=O)[C@@H]2C)C[C@@]1(C)OC [crystalline CP-472,295 sesquahydrate]

- hygroscopicity ([2]; pseudomorph formed when the monohydrate loses water): hygroscopic
- time to reabsorb the water of hydration ([2]; stored at about 87% relative humidity at ambient temperature): ≤ 4 h
SMILES: CCCNC[C@]1(O)[C@H](C)O[C@@H](O[C@H]2[C@H](C)[C@@H](O[C@@H]3O[C@H](C)C[C@H](N(C)C)[C@H]3O)[C@@](C)(O)C[C@@H](C)CN[C@H](C)[C@@H](O)[C@](C)(O)[C@@H](CC)OC(=O)[C@@H]2C)C[C@@]1(C)OC [pseudomorph]

SMILES: CCCNC[C@]1(O)[C@H](C)O[C@@H](O[C@H]2[C@H](C)[C@@H](O[C@@H]3O[C@H](C)C[C@H](N(C)C)[C@H]3O)[C@@](C)(O)C[C@@H](C)CN[C@H](C)[C@@H](O)[C@](C)(O)[C@@H](CC)OC(=O)[C@@H]2C)C[C@@]1(C)OC [crystalline anhydrous CP-472,295]
- hygroscopicity ([2]; about 72 hours): non-hygroscopic (absorbs moisture at a rate of less than about 0.4% over 24 hours at 90% relative humidity)

SMILES: CCCNC[C@]1(O)[C@H](C)O[C@@H](O[C@H]2[C@H](C)[C@@H](O[C@@H]3O[C@H](C)C[C@H](N(C)C)[C@H]3O)[C@@](C)(O)C[C@@H](C)CN[C@H](C)[C@@H](O)[C@](C)(O)[C@@H](CC)OC(=O)[C@@H]2C)C[C@@]1(C)OC [crystalline CP-472,295 monohydrate]
- hygroscopicity ([2]; about 7 days): non-hygroscopic (absorbs moisture at a rate of less than about 0.4% over 24 hours at 90% relative humidity)
